For 25 molecules, IC50 results are on record in patent publication US10822337B2, “TGF-β inhibitorC” (Rigel Pharmaceuticals, Inc., priority 2015, dated 2020).

Experiment [1] relates to TGF-β signaling (TGF-β pSMAD, MPC-11). As to the kind of experiment: AlphaScreen SureFire SMAD3 (p-Ser423/425) assay, inhibition of TGF-β signaling. In kind it is cell-based. To be noted: Mus musculus, p-SMAD-3 (Ser423/425) in cell lysate after TGF-β stimulation. From the text: (§1) Example 2: AlphaScreen® SureFire® SMAD3 (p-Ser423/425) Assay
(§2) The p-SMAD-3 (Ser423/425) SureFire® assay has been designed to measure the phosphorylation of endogenous cellular p-SMAD-3 (Ser423/425) in cell lysates and is a system for the screening of both modulators of receptor activation (e.g. agonists and antagonists) as well as agents acting intracellularly, such as small molecule inhibitors of upstream events. The assay will measure p-SMAD-3 (Ser423/425) activation by either cloned or endogenous receptors, and can be applied to primary cells.
(§3) 1× Lysis buffer: 1 ml of 5× Lysis buffer was diluted with 4 ml of sterile water. After dilution, excess 1× Lysis buffer can be frozen and thawed up to 5 times without loss in activity.
(§4) P-SMAD-3 (Ser423/425) SureFire® Assay Protocols
(§5) Step A: Preparation of Buffers
(§6) Activation buffer: The buffer was warmed slowly to 37° C. and gently mixed to re-suspend. Activation buffer can be stored at room temperature with no loss in activity.
(§7) Reaction buffer: The buffer was kept at 4° C. while in use.
(§8) AlphaScreen® Protein A IgG Kit: The kit was stored at 4° C. in the dark.
(§9) Reaction buffer+Activation buffer+AlphaScreen® Acceptor beads: Reaction buffer (40 parts), Activation Buffer (10 parts) and Acceptor beads (1 part) were mixed and the mixture was stored at room temperature and used the same day. Mixture was added to 384-well plates; excess mixturewas discarded.
(§10) Dilution buffer+AlphaScreen® Donor beads: Dilution buffer (20 parts) and Donor beads (1 part) were mixed and the mixture was stored at room temperature and used the same day. Excess mixture was discarded.
(§11) Assay control samples: After reconstitution in 250 μl of water, lysates were at −20° C. in single use aliquots.
(§12) Step B: Preparation of Samples and Cells
(§13) 96-well Assay Protocol for 293FT and RMS13 adherent cells can be carried out manually or in high throughput with liquid handling robots.
(§14) The cells (80 μL of cells for 96 well plates) were plated in collagen coated tissue culture plates in RPMI or FreeStyle medium (Invitrogen) and incubated overnight. For manual analysis, 6 plates for GDF8, 6 plates for TGFβ, and optionally 6 plates for Alk5ca(ALKS constitutively active) were used.
(§15) The compound dilution plates were prepared as follows: 12 μL of DMSO was transferred into first column of 96-well plate, and 16 μL of DMSO was transferred into columns 2-12 of the 96-well plate. 12 μL of compound solution was transferred into first column of the DMSO-containing 96-well plate. Three-fold dilution was performed up to column 10 of the DMSO-containing 96-well plate.
(§16) Step C: Treatment and Analysis
(§17) The plate containing cells were treated with compounds for about 10 minutes, and then ligand was added. GDF8 or TGFb was added to plates to stimulate. 293FL cells were stimulatedfor 90 minutes at 37° C.; and RMS13 cells were stimulated for 60 minutes at 37° C. The medium was then removed from the cells, and 1× Lysis Buffer (about 25 μL) was added and the plate was gently agitated on plate shaker for 5-10 minutes.
(§18) The lysate (5 μL) was then placed into 384-well shallow plates avoiding the generation of bubbles. To this, the Reaction Buffer+Activation Buffer+AlphaScreen® Acceptor beadsmixture (5 μL) was added. The plate was sealed with adhesive cover and shielded from light (e.g., with metal foil), and agitated gently on plate shaker for 2 hours at room temperature.
(§19) Dilution buffer+AlphaScreen® Donor beads (2 μL) was then added, and the plate was intubated on the plate shaker for an additional 1½ hours. After completion, the plate was read on Synergy-4 or Enspire plate reader, using AlphaScreen® pSMAD3® settings.
(§20) Representative results for inhibition of GDF8 (data=GDF pSMAD (MPC11) (μM)) and TGF-β (data=TGF-β pSMAD (MPC-11) (μM)) signaling are shown in Table 1: […]
A general note: In Alpha technology, singlet oxygen from a donor bead excites a nearby acceptor bead.

For experiment [2], the system named is GDF8 signaling (GDF pSMAD, MPC11). As to the kind of experiment: AlphaScreen SureFire SMAD3 (p-Ser423/425) assay, inhibition of GDF8 signaling. The class given is cell-based. To be noted: Mus musculus, MPC-11, p-SMAD-3 (Ser423/425) in cell lysate after GDF8 stimulation.
From the text: as §1, §2, §3, §4, §5, §6, §7, §8, §9, §10, §11, §12, §13, §14, §15, §16, §17, §18, §19, §20

On to `COc1ccc(F)c(-c2nn3c(c2-c2ccc4nccnc4c2)CCC3)c1` [Compound 165, 6-(2-(2-Fluoro-5-methoxyphenyl)-5,6-dihydro-4H-pyrrolo[1,2-b]pyrazol-3-yl)quinoxaline], for which the IC50 came out at 29 nM in experiment [1] and 7.2 nM in experiment [2].

In the case of `Cn1cnc2ccc(-c3c(-c4cccc(C(F)(F)F)c4)nn4c3OCC4)cc21` [Compound 60, 7-(1-Methyl-1H-benzo[d]imidazol-6-yl)-6-(3-trifluoromethylphenyl)-1,2-dihydropyrazolo[5,1-b]oxazole], the IC50 was found to be 214 nM in experiment [1] and 68.6 nM in experiment [2].

With `Fc1ccc(-c2nn3c(c2-c2ccc4nccn4c2)CCC3)cc1Cl` [Compound 144, 6-(2-(3-Chloro-4-fluorophenyl)-5,6-dihydro-4H-pyrrolo[1,2-b]pyrazol-3-yl)imidazo[1,2-a]pyridine], the IC50 in experiment [1] came out at 343 nM; in experiment [2], 100 nM.

For the molecule `Fc1ccc(-c2nn3c(c2-c2ccc4ncsc4c2)CCC3)cc1` [Compound 14, 6-(2-(4-Fluorophenyl)-5,6-dihydro-4H-pyrrolo[1,2-b]pyrazol-3-yl)benzo[d]thiazole], the concentration for half-maximal inhibition (IC50) in experiment [1] came to 976 nM; in experiment [2] it was 295 nM.

For the molecule `Fc1ccc(-c2nn3c(c2-c2ccc4nccn4c2)CCC3)c(F)c1` [Compound 94, 6-(2-(2,4-Difluorophenyl)-5,6-dihydro-4H-pyrrolo[1,2-b]pyrazol-3-yl)imidazo[1,2-a]pyridine], the concentration for half-maximal inhibition (IC50) in experiment [1] was 482 nM; in experiment [2], 77 nM.

For the molecule `Fc1ccc(-c2nn3c(c2-c2ccc4ncnn4c2)CCC3)cc1` [Compound 103, 6-(2-(4-Fluorophenyl)-5,6-dihydro-4H-pyrrolo[1,2-b]pyrazol-3-yl)-[1,2,4]triazolo[1,5-a]pyridine], the IC50 came out at 520 nM in experiment [1] and 131 nM in experiment [2].

As for `Fc1c(Cl)cccc1-c1nn2c(c1-c1ccc3[nH]ncc3c1)CCC2` [Compound 138, 5-(2-(3-Chloro-2-fluorophenyl)-5,6-dihydro-4H-pyrrolo[1,2-b]pyrazol-3-yl)-1H-indazole], the figures for the IC50 in experiment [1] and in experiment [2] were 1470 nM and 731 nM, respectively.

For `Fc1cc(F)c(-c2nn3c(c2-c2ccc4cn[nH]c4c2)CCC3)cc1F` [Compound 113, 6-(2-(2,4,5-Trifluorophenyl)-5,6-dihydro-4H-pyrrolo[1,2-b]pyrazol-3-yl)-1H-indazole], the results for the IC50 in experiment [1] and in experiment [2] were 1470 nM and 226 nM, respectively.

`Clc1cccc(-c2nn3c(c2-c2ccc4ncsc4c2)CCC3)c1` [Compound 26, 6-(2-(3-Chlorophenyl)-5,6-dihydro-4H-pyrrolo[1,2-b]pyrazol-3-yl)benzo[d]thiazole]: the IC50 stood at 133 nM in experiment [1] and 67 nM in experiment [2].

As to `Cc1c(F)ccc(-c2nn3c(c2-c2ccc4ncsc4c2)CCC3)c1F` [Compound 170, 6-(2-(2,4-Difluoro-3-methylphenyl)-5,6-dihydro-4H-pyrrolo[1,2-b]pyrazol-3-yl)benzo[d]thiazole], the IC50 in experiment [1] came out at 603 nM; in experiment [2] it was 213 nM.

Turning to `Cn1cnc2ccc(-c3c(-c4cccc(C(F)(F)F)c4)nn4c3CCC4)cc21` [Compound 33, 1-Methyl-6-(2-(3-trifluoromethylphenyl)-5,6-dihydro-4H-pyrrolo[1,2-b]pyrazol-3-yl)-1H-benzo[d]imidazole], the IC50 in experiment [1] is 42.1 nM; in experiment [2], 21.2 nM.

As to `Cc1cc(-c2nn3c(c2-c2ccc4[nH]ncc4c2)CCC3)ccc1F` [Compound 2, 5-(2-(4-Fluoro-3-methylphenyl)-5,6-dihydro-4H-pyrrolo[1,2-b]pyrazol-3-yl)-1H-indazole], the IC50 in experiment [1] turned out to be 140 nM; in experiment [2], 45 nM.

For the molecule `Fc1cc(F)c(-c2nn3c(c2-c2ccc4[nH]ncc4c2)CCC3)cc1Cl` [Compound 186, 5-(2-(5-Chloro-2,4-difluorophenyl)-5,6-dihydro-4H-pyrrolo[1,2-b]pyrazol-3-yl)-1H-indazole], the IC50 turned out to be 350 nM in experiment [1] and 106 nM in experiment [2].

For `Fc1ccc(-c2nn3c(c2-c2ccc4[nH]ncc4c2)CCC3)c(F)c1Cl` [Compound 155, 5-(2-(3-Chloro-2,4-difluorophenyl)-5,6-dihydro-4H-pyrrolo[1,2-b]pyrazol-3-yl)-1H-indazole], the IC50 in experiment [1] was 1020 nM; in experiment [2], 105 nM.

Take `Fc1ccc(-c2nn3c(c2-c2ccc4nccnc4c2)CCC3)c(F)c1Cl` [Compound 159, 6-(2-(3-Chloro-2,4-difluorophenyl)-5,6-dihydro-4H-pyrrolo[1,2-b]pyrazol-3-yl)quinoxaline]: the IC50 in experiment [1] came to 2730 nM; in experiment [2], 526 nM.

For the molecule `Cc1cc(-c2nn3c(c2-c2ccc4[nH]ncc4c2)CCC3)c(F)cc1F` [Compound 179, 5-(2-(2,4-Difluoro-5-methyphenyl)-5,6-dihydro-4H-pyrrolo[1,2-b]pyrazol-3-yl)-1H-indazole], the results for the 50% inhibitory concentration (IC50) in experiment [1] and in experiment [2] were 714 nM and 172 nM, respectively.

`Fc1cc(F)c(-c2nn3c(c2-c2ccc4cn[nH]c4c2)CCC3)cc1Cl` [Compound 187, 6-(2-(5-Chloro-2,4-difluorophenyl)-5,6-dihydro-4H-pyrrolo[1,2-b]pyrazol-3-yl)-1H-indazole]: the IC50 in experiment [1] was 656 nM; in experiment [2], 135 nM.

Take `Cc1cccc(-c2nn3c(c2-c2ccc4ncsc4c2)CCC3)c1` [Compound 12, 6-(2-(m-Tolyl)-5,6-dihydro-4H-pyrrolo[1,2-b]pyrazol-3-yl)benzo[d]thiazole]: the IC50 worked out at 117 nM in experiment [1] and 46.8 nM in experiment [2].

`COc1ccc(-c2nn3c(c2-c2ccc4nccnc4c2)CCC3)cc1` [Compound 102, 6-(2-(4-Methoxyphenyl)-5,6-dihydro-4H-pyrrolo[1,2-b]pyrazol-3-yl)quinoxaline]: the IC50 in experiment [1] turned out to be 4180 nM; in experiment [2] it was 685 nM.

`Clc1cccc(-c2nn3c(c2-c2ccc4ncccc4c2)CCC3)c1` [Compound 49, 6-(2-(3-Chlorophenyl)-5,6-dihydro-4H-pyrrolo[1,2-b]pyrazol-3-yl)quinoline]: the IC50 amounted to 926 nM in experiment [1] and 129 nM in experiment [2].

In the case of `FC(F)(F)Oc1cccc(-c2nn3c(c2-c2ccc4ncsc4c2)CCC3)c1` [Compound 125, 6-(2-(3-Trifluoromethoxyphenyl)-5,6-dihydro-4H-pyrrolo[1,2-b]pyrazol-3-yl)benzo[d]thiazole], the IC50 worked out at 124 nM in experiment [1] and 160 nM in experiment [2].

Turning to `FC(F)(F)Oc1cccc(-c2nn3c(c2-c2ccc4cn[nH]c4c2)CCC3)c1` [Compound 123, 6-(2-(3-Trifluoromethoxyphenyl)-5,6-dihydro-4H-pyrrolo[1,2-b]pyrazol-3-yl)-1H-indazole], the figures for the half-inhibitory concentration (IC50) in experiment [1] and in experiment [2] were 190 nM and 85.3 nM, respectively.

Consider `FC(F)(F)c1cccc(-c2nn3c(c2-c2ccc4ncsc4c2)OCC3)c1` [Compound 62, 7-(Benzo[d]thiazol-6-yl)-6-(3-trifluoromethylphenyl)-2,3-dihydropyrazolo[5,1-b]oxazole], for which the IC50 in experiment [1] stood at 787 nM; in experiment [2] it was 272 nM.

Take `Cc1c(F)ccc(-c2nn3c(c2-c2ccc4ncccc4c2)CCC3)c1F` [Compound 171, 6-(2-(2,4-Difluoro-3-methylphenyl)-5,6-dihydro-4H-pyrrolo[1,2-b]pyrazol-3-yl)quinoline]: the results for the IC50 in experiment [1] and in experiment [2] were 1840 nM and 1220 nM, respectively.

In the case of `Fc1ccc(-c2nn3c(c2-c2ccc4ncccc4c2)CCC3)cc1` [Compound 45, 6-(2-(4-Fluorophenyl)-5,6-dihydro-4H-pyrrolo[1,2-b]pyrazol-3-yl)quinoline], the IC50 worked out at 12600 nM in experiment [1] and 1080 nM in experiment [2].

What is called IC50 is the concentration that gives 50% inhibition.
